Assay results from patent US6693095B2, “Antibacterial substituted 7-acylamino-3-(methylhydrazono) methyl-cephalosporins and intermediates” (priority 1997, dated 2004).

System: multi-drug resistant Pneumococcus
Experiment: Agar Dilution Test (NCCLS), MHK
Assay type: cell-based, Pneumococcus pneumoniae
Details: against multi-drug resistant Pneumococcus
Text: In particular, the active compounds of the invention show antimicrobial, e.g. antibacterial, activity against aerobic and anaerobic growing bacteria, e.g. gram negative and gram positive bacteria such as Enterobacter, e.g. Enterobacter cloacae; Enterococcus, e.g. Enterococcus faecalis, Enterococcus faecium; Moraxella, e.g. Moraxella catarrhalis; Haemophilus, e.g. Haemophilus influenza; Klebsiella, e.g. Klebsiella edwardsii, Klebsiella pneumoniae; Streptococcus, e.g. Streptococcus pyogenes; Staphylococcus, e.g. Staphylococcus aureus MSSA (methicillin sensitive strains); Staphylococcus aureus MRSA (methicillin resistant strains); Escherichia, e.g. Escherichia coli; Proteus, e.g. Proteus mirabilis, Salmonella, e.g. Salmonella typhimurium, Serratia, e.g. Serratia marcescens, Pseudomonas, e.g. Pseudomonas aeruginosa; Pneumococci, e.g. Pneumococcus pneumoniae (penicillin sensitive and mult-drug resistant strains); in vitro in the Agar DilutionTest for bacteria according to National Commitee for Clinical Laboratory Standards (NCCLS) 1993,
Document-M7-A3 Vol.13, No. 25: “Methods for dilution Antimicrobial Susceptibility Tests for Bacteria that Grow Aerobically-Third Edition, Approved Standard”; and
Document M11-A3 for anaerobic bacteria […]

7-(((5-amino-1,2,4-thiadiazol-3-yl)-(Z)-(fluoromethoxyimino)acetyl)amino)-3-(imino-1-piperazinyhmethyl)medtylhydrazono)methyl-3-cephem4-carboxylic acid [Example 1]
MHK: 0.4 µg/mL
